Source: the supplement of paper PMC10627819

Assays:
S. pneumoniae D39V [1] = assay: fitness (endpoint OD595 vs no drug) (fraction); higher = more growth
Procedure, shortened: (§1)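 Cultures at OD595 0.01 were dispensed into 384-well plates in TSB, LB Lennox or CY and incubated at 37 °C. Every 30 min for 14 h, OD595 was read and corrected by the first reading. Fitness is the optical density at entry into stationary phase relative to the robust mean of no-drug control wells, capped at 1.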

B. subtilis 168 [2] = assay: as above
Procedure, shortened: as §1

S. aureus DSM 20231 = assay: Bliss interaction score (quartile over a dose matrix) (fitness difference); higher = more antagonism (negative = synergy)
Procedure, shortened: (§2)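 Fitness is OD595 at stationary-phase entry relative to the plate's robust no-drug mean, capped at 1. Single-drug fitness was inferred from combinations. The Bliss score is observed minus product-expected fitness, summarised by quartiles over technical, biological and donor/recipient replicates.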

S. aureus Newman [3] = assay: as above
Procedure, shortened: as §2

S. pneumoniae D39V [4] = assay: as above
Procedure, shortened: as §2

B. subtilis 168 [5] = assay: as above
Procedure, shortened: as §2

S. aureus Newman [6] = assay: fitness (endpoint OD595 vs no drug) (fraction); higher = more growth; conditions: main component drawn
Procedure, shortened: as §1
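Wherever Bliss interaction score (quartile over a dose matrix) is given: first quartile when negative (synergy) and third quartile when positive (antagonism).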

CC(=O)NC[C@H]1CN(c2ccc(N3CCOCC3)c(F)c2)C(=O)O1 [Linezolid] + CN(C)c1cc(NC(=O)CNC(C)(C)C)c(O)c2c1C[C@H]1C[C@H]3[C@H](N(C)C)C(O)=C(C(N)=O)C(=O)[C@@]3(O)C(O)=C1C2=O [Tigecycline]
Conditions | fitness
B. subtilis 168 [2], first compound 0.125 µg/mL, partner 0.039 µg/mL | 0.542
B. subtilis 168 [2], first compound 0.125 µg/mL, partner 0.078 µg/mL | 0.537
B. subtilis 168 [2], first compound 0.125 µg/mL, partner 0.156 µg/mL | 0.543
B. subtilis 168 [2], first compound 0.25 µg/mL, partner 0.078 µg/mL | 0.0754
B. subtilis 168 [2], first compound 0.25 µg/mL, partner 0.156 µg/mL | 0.0704
B. subtilis 168 [2], first compound 0.5 µg/mL, partner 0.039 µg/mL | 0.0624
B. subtilis 168 [2], first compound 0.5 µg/mL, partner 0.078 µg/mL | 0.0638
B. subtilis 168 [2], first compound 0.5 µg/mL, partner 0.156 µg/mL | 0.0364
S. pneumoniae D39V [1], first compound 0.105 µg/mL, partner 0.65 µg/mL | 0.829
S. pneumoniae D39V [1], first compound 0.105 µg/mL, partner 1.3 µg/mL | 0.785
S. pneumoniae D39V [1], first compound 0.105 µg/mL, partner 2.6 µg/mL | 0.801
S. pneumoniae D39V [1], first compound 0.2 µg/mL, partner 0.65 µg/mL | 0.712
S. pneumoniae D39V [1], first compound 0.2 µg/mL, partner 1.3 µg/mL | 0.694
S. pneumoniae D39V [1], first compound 0.2 µg/mL, partner 2.6 µg/mL | 0.692
S. pneumoniae D39V [1], first compound 0.21 µg/mL, partner 0.65 µg/mL | 0.718
S. pneumoniae D39V [1], first compound 0.21 µg/mL, partner 1.3 µg/mL | 0.71
S. pneumoniae D39V [1], first compound 0.21 µg/mL, partner 2.6 µg/mL | 0.66
S. pneumoniae D39V [1], first compound 0.4 µg/mL, partner 0.65 µg/mL | 0.588
S. pneumoniae D39V [1], first compound 0.4 µg/mL, partner 1.3 µg/mL | 0.582
S. pneumoniae D39V [1], first compound 0.4 µg/mL, partner 2.6 µg/mL | 0.552
S. pneumoniae D39V [1], first compound 0.42 µg/mL, partner 0.65 µg/mL | 0.393
S. pneumoniae D39V [1], first compound 0.42 µg/mL, partner 1.3 µg/mL | 0.366
S. pneumoniae D39V [1], first compound 0.42 µg/mL, partner 2.6 µg/mL | 0.323
S. pneumoniae D39V [1], first compound 0.8 µg/mL, partner 0.65 µg/mL | 0.252
S. pneumoniae D39V [1], first compound 0.8 µg/mL, partner 1.3 µg/mL | 0.273
S. pneumoniae D39V [1], first compound 0.8 µg/mL, partner 2.6 µg/mL | 0.275

fitness, B. subtilis 168 [2], one replicate
Conditions | partner 0.039 µg/mL | partner 0.078 µg/mL | partner 0.125 µg/mL | partner 0.156 µg/mL | partner 0.25 µg/mL | partner 0.5 µg/mL
first compound 0.0625 µg/mL | 0.872 | 0.848 | – | 0.896 | – | –
first compound 0.125 µg/mL | – | – | ≥ 1 | – | 0.871 | 0.909
first compound 0.25 µg/mL | – | – | 0.906 | – | 0.839 | 0.782
first compound 0.5 µg/mL | – | – | 0.214 | – | 0.0983 | 0.111

Conditions | Bliss interaction score
B. subtilis 168 [5] | 0.11
S. aureus DSM 20231 | -0.0817
S. aureus Newman [3] | -0.0561
S. pneumoniae D39V [4] | -0.158

CC(=O)NC[C@H]1CN(c2ccc(N3CCOCC3)c(F)c2)C(=O)O1 [Linezolid] + CN[C@@H]1[C@H](O[C@H]2[C@H](O[C@H]3[C@H](O)[C@@H](O)[C@H](N=C(N)N)[C@@H](O)[C@@H]3N=C(N)N)O[C@@H](C)[C@]2(O)C=O)O[C@@H](CO)[C@H](O)[C@H]1O [Streptomycin]
fitness
Conditions | partner 2 µg/mL | partner 4 µg/mL | partner 8 µg/mL
B. subtilis 168 [2], first compound 0.125 µg/mL | 0.543 | 0.454 | 0.0968
B. subtilis 168 [2], first compound 0.25 µg/mL | 0.142 | 0.0931 | 0.0559
B. subtilis 168 [2], first compound 0.5 µg/mL | 0.0384 | 0.0468 | 0.0218
S. pneumoniae D39V [1], first compound 0.105 µg/mL | 0.763 | 0.752 | 0.803
S. pneumoniae D39V [1], first compound 0.2 µg/mL | – | 0.781 | 0.684
S. pneumoniae D39V [1], first compound 0.21 µg/mL | 0.655 | 0.683 | 0.719
S. pneumoniae D39V [1], first compound 0.4 µg/mL | – | 0.625 | 0.56
S. pneumoniae D39V [1], first compound 0.42 µg/mL | 0.376 | 0.337 | 0.307
S. pneumoniae D39V [1], first compound 0.8 µg/mL | – | 0.283 | 0.233

fitness, one replicate
Conditions | partner 2 µg/mL | partner 4 µg/mL | partner 8 µg/mL | partner 16 µg/mL
B. subtilis 168 [2], first compound 0.0625 µg/mL | 0.938 | 0.556 | 0.0308 | –
S. pneumoniae D39V [1], first compound 0.2 µg/mL | 0.826 | – | – | 0.584
S. pneumoniae D39V [1], first compound 0.4 µg/mL | 0.659 | – | – | 0.41
S. pneumoniae D39V [1], first compound 0.8 µg/mL | 0.292 | – | – | 0.163

Conditions | Bliss interaction score
B. subtilis 168 [5] | 0.0492
S. aureus DSM 20231 | -0.0536
S. aureus Newman [3] | -0.0504
S. pneumoniae D39V [4] | -0.112

CO[C@H]1/C=C/O[C@@]2(C)Oc3c(C)c(O)c4c(O)c(c(/C=N/N5CCN(C)CC5)c(O)c4c3C2=O)NC(=O)/C(C)=C\C=C\[C@H](C)[C@H](O)[C@@H](C)[C@@H](O)[C@@H](C)[C@H](OC(C)=O)[C@@H]1C [Rifampicin] + Cc1cc(NS(=O)(=O)c2ccc(N)cc2)no1 [Sulfamethoxazol]
S. pneumoniae D39V [1], first compound 0.025 µg/mL, one replicate
Conditions | fitness
partner 1 µg/mL | 0.837
partner 2 µg/mL | 0.831
partner 4 µg/mL | 0.828

fitness, S. pneumoniae D39V [1]
Conditions | partner 1 µg/mL | partner 2 µg/mL | partner 4 µg/mL
first compound 0.05 µg/mL | 0.933 | 0.93 | 0.853
first compound 0.2 µg/mL | 0.0772 | 0.0834 | 0.104

Conditions | Bliss interaction score
B. subtilis 168 [5] | -0.052
S. aureus DSM 20231 | -0.0278
S. aureus Newman [3] | -0.0257
S. pneumoniae D39V [4] | 0.0639

CO[C@H]1/C=C/O[C@@]2(C)Oc3c(C)c(O)c4c(O)c(c(/C=N/N5CCN(C)CC5)c(O)c4c3C2=O)NC(=O)/C(C)=C\C=C\[C@H](C)[C@H](O)[C@@H](C)[C@@H](O)[C@@H](C)[C@H](OC(C)=O)[C@@H]1C [Rifampicin] + Cn1nnc(-c2ccc(-c3ccc(N4C[C@H](CO)OC4=O)cc3F)cn2)n1 [Tedizolid]
fitness, S. pneumoniae D39V [1], one replicate
Conditions | partner 0.125 µg/mL | partner 0.25 µg/mL | partner 0.5 µg/mL
first compound 0.025 µg/mL | 0.832 | 0.726 | 0.254
first compound 0.2 µg/mL | – | 0 | 0

fitness, S. pneumoniae D39V [1]
Conditions | partner 0.03125 µg/mL | partner 0.0625 µg/mL | partner 0.125 µg/mL | partner 0.25 µg/mL | partner 0.5 µg/mL
first compound 0.05 µg/mL | 0.98 | 0.97 | 0.907 | 0.591 | 0.21
first compound 0.1 µg/mL | 0.743 | 0.79 | – | 0.343 | 0.181
first compound 0.2 µg/mL | 0.197 | 0.233 | 0.122 | – | –

Conditions | Bliss interaction score
B. subtilis 168 [5] | -0.0782
S. aureus DSM 20231 | 0.0203
S. aureus Newman [3] | -0.0238
S. pneumoniae D39V [4] | 0.133

CN[C@@H]1[C@H](O[C@H]2[C@H](O[C@H]3[C@H](O)[C@@H](O)[C@H](N=C(N)N)[C@@H](O)[C@@H]3N=C(N)N)O[C@@H](C)[C@]2(O)C=O)O[C@@H](CO)[C@H](O)[C@H]1O [Streptomycin] + CCCCCCCCCC(=O)N[C@@H]1[C@H]([C@@H]([C@H](O[C@H]1OC2=C3C=C4C=C2OC5=C(C=C(C=C5)[C@H]([C@H]6C(=O)N[C@@H](C7=C(C(=CC(=C7)O)OC8[C@H]([C@H]([C@@H]([C@H](O8)CO)O)O)O)C9=C(C=CC(=C9)[C@H](C(=O)N6)NC(=O)[C@@H]4NC(=O)[C@@H]1C2=CC(=CC(=C2)OC2=C(C=CC(=C2)[C@H](C(=O)N[C@H](CC2=CC(=C(O3)C=C2)Cl)C(=O)N1)N)O)O)O)C(=O)O)O[C@H]1[C@@H]([C@H]([C@@H]([C@H](O1)CO)O)O)NC(=O)C)Cl)CO)O)O [Teicoplanin]
fitness, S. aureus Newman [6]
Conditions | first compound 1 µg/mL | first compound 2 µg/mL | first compound 4 µg/mL
partner 0.1562 µg/mL | ≥ 1 | ≥ 1 | –
partner 0.3125 µg/mL | ≥ 1 | 0.932 | –
partner 0.625 µg/mL | 0.917 | 0.803 | 0.344

fitness, S. aureus Newman [6], one replicate
Conditions | first compound 2 µg/mL | first compound 4 µg/mL | first compound 8 µg/mL
partner 0.62 µg/mL | 0.737 | 0.574 | 0.0838
partner 1.24 µg/mL | 0.527 | 0.0741 | 0.0255
partner 2.48 µg/mL | 0.0707 | 0.0385 | 0.103

main component drawn
Conditions | Bliss interaction score
B. subtilis 168 [5] | -0.0977
S. aureus DSM 20231 | -0.227
S. aureus Newman [3] | -0.118
S. pneumoniae D39V [4] | -0.0928
